From US20100190849A1, “Novel Clerodanes and Methods for Repelling Arthropods” (priority 2006, published 2010)
Marks after values point to notes of the source that are not given here.

How the values were obtained:
[1] = system: Aedes aegypti; assay: Total mosquito toxic knockdown after K & D module exposure (Experiment 8); format: in vivo; conditions: Exp. 8, 25 nmol/cm^2 cloth; for Total Knock down 6 min: dead mosquitoes 6 min post-treatment exposure; for Total knock down 1 hr: dead mosquitoes 1 hr post-treatment exposure; for Total knock down 24 hr: dead mosquitoes 24 hr post-treatment exposure
From the text: (§1) Plant extracts, fractions, or isolated pure plant derived compounds in 95% ethanol solution were each randomly applied to six-4×5 cm areas of organdy cloth and positioned over the membrane-covered blood. A replicate consisted of six treatments: four test chemicals or extract fractions, 95% ethanol treated cloth as control and unfractionated plant extract or a standard repellent compound, (1S, 2′S)-2-methylpiperidinyl-3-cyclohexen-1-carboxamide (SS220) at 25 nmol/cm^2 cloth. The 25 nmol SS220/cm^2 cloth dose was used as a standard, because it was known from human volunteer and in vitro assays to consistently suppress mosquito biting by 80% or more compared to controls in replicated assays (Klun, J. A., et al., Journal of the American Mosquito Control Association, 21: 64-70 (2005)). […] Routinely, a six-celled K & D module containing five mosquitoes/cell was positioned over cloth treatments covering the six blood-membrane wells, and trap doors of the K&D modules were opened to expose the treatments to the sets of mosquitoes. After a 3 minute exposure, the number of mosquitoes biting through cloth treatments in each cell was recorded and mosquitoes were prodded back into the cells. In Experiment 8, we retained all mosquitoes in their respective K&D module cells, each fitted with a water-moist piece of cotton, and observed the mosquitoes for total mosquito toxic knockdown at 6 min, 1 hr, and 24 hr post-treatment exposure. Experiments were replicated 12, 18, 32, or 56 times. Thus, 60, 90, 160. or 280 mosquitoes were tested against each treatment depending on the experiment, and the proportion of mosquitoes not biting for each treatment was calculated. For each experiment, conducted in different time periods, logistic regression was used to make two sets of one degree-of-freedom contrasts (t-tests): treatments vs. control and treatments vs. SS220 for anti-biting activity within each experiment. The level of significance was set at P=0.05. In all, we conducted 8 biological experiments, and all experiments used Ae. aegypti as the test mosquito with exception of Experiment 7 which used An. stephensi.
Experiment 8: This experiment (12 replicates) compared the antibiting activities of a mixture (25 nmol/cm^2 cloth) of 11.5% callicarpenal, 47.1% intermedeol, and 41.4% spathulenol. The percentage composition of the mixture was a normalized percentage of active components in C. japonica essential oil based upon GC-MS analysis total ion Area % analysis based on largest peaks. Other treatments in the experiment were SS220, callicarpenal, intermedeol, and spathulenol each at 25 nmol/cm^2 cloth versus control. In addition to measurement of anti-biting activity, the number of dead mosquitoes observed at three time intervals were recorded for the six treatments.

[2] = system: Anopheles stephensi; assay: K & D module mosquito anti-biting (repellent) bioassay; format: in vivo; conditions: 25 nmol compound/cm^2 cloth; for Proportion Not Biting: Exp. 7, 56 replicates; for repellent activity (in words): Experiment 7
From the text: Insects: Ae. aegypti(L.) (red eye Liverpool strain) and An. stephensi Liston used in the study were from colonies maintained at the Walter Reed Army Institute of Research, Silver Spring, Md. The insects were reared by feeding larvae ground tropical fish flakes (Tetramin Tropical Fish Flakes, Tetra Sales, Blacksburg, Va., www.tetra-fish.com)(Gerberg, E. j., et al., Manual for mosquito rearing and experimental techniques. Amer. Mosq. Control Assoc. Bull. No. 5 (revised), 1994, AMCA. inc., Lake Charles, La.). Adults were maintained in a photoperiod of 12:12 (L:D) h at 27° C. and 80% RH with cotton pads moistened with 10% aqueous sucrose solution. Mated females were 5-15 d old when they were used in bioassays. Ae. aegypti females had access only to water 24 h and neither food nor water for another 24 h before testing. An. stephensi females were provided with water alone 24 h before testing.
Mosquito Bioassay Methods: Experiment were conducted by using, a six-celled in vitro Klun & Debboun (K & D) module bioassay system developed by klun et al. (Klum J. A., et al., Journal of the American Mosquito Control Association. 21: 64-70 (2005)) for quantitative, evaluation of mosquito-repellent (anti-biting) properties of candidate repellent compounds for human use.
as §1
Experiments 6 and 7: These experiments compared the anti-biting activities of SS-220, and plant-isolated callicarpenal, humulene epoxide II, intermedeol and spathulenol at 25 nmol compound/cm^2 cloth versus control against Ae. aegypti and An. stephensi, respectively. Experiment 6 was replicated 32 times and 7 had 56 replicates

SMILES	Total Knock down 6 min [1]	Total knock down 1 hr [1]	Total knock down 24 hr [1]	Proportion Not Biting [2]	repellent activity (in words) [2]
CC1=CCC[C@@H]2[C@@](C)(CC=O)[C@H](C)CC[C@@]12C [callicarpenal, 13,14,15,16-tetranorclerod-3-en-12-al]	0	1	5	0.75^c	as effective as SS220
C=C(C)C1CCC2(C)CCCC(C)(O)C2C1 [intermedeol, (4S,5S,7R,10S)-eudesm-11-en-4-ol]	1	1	2	0.72^c	as effective as SS220
